Numbers after ± are expanded uncertainties.
Experiment: osmotic coefficient (dimensionless); mn = molality of the nth substance listed, in mol/kg
Settings: 101 kPa, Liquid, Knauer K-7000 vapour pressure osmometer

SMILES: CCCCn1cc[n+](C)c1.[Cl-] [1-butyl-3-methylimidazolium chloride] + CCO
- osmotic coefficient (313.15 K, m1 = 0.1278): 1.02 ± 0.001
- osmotic coefficient (313.15 K, m1 = 0.3749): 0.887 ± 0.006
- osmotic coefficient (313.15 K, m1 = 0.6198): 0.802 ± 0.01
- osmotic coefficient (313.15 K, m1 = 0.7747): 0.783 ± 0.011
- osmotic coefficient (313.15 K, m1 = 1.096): 0.742 ± 0.013
- osmotic coefficient (313.15 K, m1 = 1.437): 0.717 ± 0.014
- osmotic coefficient (313.15 K, m1 = 1.904): 0.685 ± 0.016
- osmotic coefficient (313.15 K, m1 = 2.318): 0.68 ± 0.016
- osmotic coefficient (313.15 K, m1 = 2.688): 0.657 ± 0.017
- osmotic coefficient (313.15 K, m1 = 3.018): 0.653 ± 0.017
- osmotic coefficient (313.15 K, m1 = 3.348): 0.66 ± 0.017
- osmotic coefficient (313.15 K, m1 = 3.521): 0.66 ± 0.017
- osmotic coefficient (333.15 K, m1 = 0.1278): 0.782 ± 0.011
- osmotic coefficient (333.15 K, m1 = 0.3749): 0.709 ± 0.015
- osmotic coefficient (333.15 K, m1 = 0.6198): 0.666 ± 0.017
- osmotic coefficient (333.15 K, m1 = 0.7747): 0.647 ± 0.018
- osmotic coefficient (333.15 K, m1 = 1.096): 0.63 ± 0.019
- osmotic coefficient (333.15 K, m1 = 1.437): 0.613 ± 0.019
- osmotic coefficient (333.15 K, m1 = 1.904): 0.589 ± 0.021
- osmotic coefficient (333.15 K, m1 = 2.318): 0.576 ± 0.021
- osmotic coefficient (333.15 K, m1 = 2.688): 0.566 ± 0.022
- osmotic coefficient (333.15 K, m1 = 3.018): 0.553 ± 0.022
- osmotic coefficient (333.15 K, m1 = 3.348): 0.55 ± 0.023
- osmotic coefficient (333.15 K, m1 = 3.521): 0.548 ± 0.023

SMILES: CCn1cc[n+](C)c1.[Cl-] [1-ethyl-3-methylimidazolium chloride] + O
- osmotic coefficient (313.15 K, m1 = 0.1847): 0.97 ± 0.002
- osmotic coefficient (313.15 K, m1 = 0.3033): 0.949 ± 0.003
- osmotic coefficient (313.15 K, m1 = 0.3896): 0.941 ± 0.003
- osmotic coefficient (313.15 K, m1 = 0.5094): 0.923 ± 0.004
- osmotic coefficient (313.15 K, m1 = 0.7105): 0.895 ± 0.005
- osmotic coefficient (313.15 K, m1 = 1.047): 0.861 ± 0.007
- osmotic coefficient (313.15 K, m1 = 1.294): 0.842 ± 0.008
- osmotic coefficient (313.15 K, m1 = 1.678): 0.835 ± 0.008
- osmotic coefficient (313.15 K, m1 = 2.113): 0.831 ± 0.008
- osmotic coefficient (313.15 K, m1 = 2.49): 0.829 ± 0.009
- osmotic coefficient (313.15 K, m1 = 2.947): 0.844 ± 0.008
- osmotic coefficient (313.15 K, m1 = 3.237): 0.852 ± 0.007
- osmotic coefficient (313.15 K, m1 = 3.722): 0.885 ± 0.006
- osmotic coefficient (313.15 K, m1 = 4.113): 0.921 ± 0.004
- osmotic coefficient (333.15 K, m1 = 0.1847): 0.936 ± 0.003
- osmotic coefficient (333.15 K, m1 = 0.3033): 0.918 ± 0.004
- osmotic coefficient (333.15 K, m1 = 0.3896): 0.896 ± 0.005
- osmotic coefficient (333.15 K, m1 = 0.5094): 0.865 ± 0.007
- osmotic coefficient (333.15 K, m1 = 0.7105): 0.847 ± 0.008
- osmotic coefficient (333.15 K, m1 = 1.047): 0.812 ± 0.009
- osmotic coefficient (333.15 K, m1 = 1.294): 0.801 ± 0.01
- osmotic coefficient (333.15 K, m1 = 1.678): 0.79 ± 0.011
- osmotic coefficient (333.15 K, m1 = 2.113): 0.784 ± 0.011
- osmotic coefficient (333.15 K, m1 = 2.49): 0.788 ± 0.011
- osmotic coefficient (333.15 K, m1 = 2.947): 0.797 ± 0.01
- osmotic coefficient (333.15 K, m1 = 3.237): 0.809 ± 0.01
- osmotic coefficient (333.15 K, m1 = 3.722): 0.831 ± 0.008
- osmotic coefficient (333.15 K, m1 = 4.113): 0.855 ± 0.007

SMILES: CCOS(=O)(=O)[O-].CC[n+]1cccc(C)c1 [1-ethyl-3-methylpyridinium ethylsulfate] + O
- osmotic coefficient (313.15 K, m1 = 0.1419): 0.956 ± 0.002
- osmotic coefficient (313.15 K, m1 = 0.2108): 0.927 ± 0.004
- osmotic coefficient (313.15 K, m1 = 0.3168): 0.897 ± 0.005
- osmotic coefficient (313.15 K, m1 = 0.3829): 0.873 ± 0.006
- osmotic coefficient (313.15 K, m1 = 0.5036): 0.846 ± 0.008
- osmotic coefficient (313.15 K, m1 = 0.6837): 0.828 ± 0.009
- osmotic coefficient (313.15 K, m1 = 1.034): 0.813 ± 0.009
- osmotic coefficient (313.15 K, m1 = 1.326): 0.808 ± 0.01
- osmotic coefficient (313.15 K, m1 = 1.726): 0.807 ± 0.01
- osmotic coefficient (313.15 K, m1 = 2.11): 0.813 ± 0.009
- osmotic coefficient (313.15 K, m1 = 2.501): 0.826 ± 0.009
- osmotic coefficient (313.15 K, m1 = 2.892): 0.843 ± 0.008
- osmotic coefficient (313.15 K, m1 = 3.303): 0.859 ± 0.007
- osmotic coefficient (333.15 K, m1 = 0.1419): 0.948 ± 0.003
- osmotic coefficient (333.15 K, m1 = 0.2108): 0.925 ± 0.004
- osmotic coefficient (333.15 K, m1 = 0.3168): 0.887 ± 0.006
- osmotic coefficient (333.15 K, m1 = 0.3829): 0.864 ± 0.007
- osmotic coefficient (333.15 K, m1 = 0.5036): 0.836 ± 0.008
- osmotic coefficient (333.15 K, m1 = 0.6837): 0.811 ± 0.009
- osmotic coefficient (333.15 K, m1 = 1.034): 0.784 ± 0.011
- osmotic coefficient (333.15 K, m1 = 1.326): 0.782 ± 0.011
- osmotic coefficient (333.15 K, m1 = 1.726): 0.782 ± 0.011
- osmotic coefficient (333.15 K, m1 = 2.11): 0.792 ± 0.01
- osmotic coefficient (333.15 K, m1 = 2.501): 0.802 ± 0.01
- osmotic coefficient (333.15 K, m1 = 2.892): 0.809 ± 0.01
- osmotic coefficient (333.15 K, m1 = 3.303): 0.817 ± 0.009

SMILES: CCCCCCn1cc[n+](C)c1.[Cl-] [1-hexyl-3-methylimidazolium chloride] + CCO
- osmotic coefficient (313.15 K, m1 = 0.0583): 0.955 ± 0.002
- osmotic coefficient (313.15 K, m1 = 0.0975): 0.92 ± 0.004
- osmotic coefficient (313.15 K, m1 = 0.4274): 0.735 ± 0.013
- osmotic coefficient (313.15 K, m1 = 0.6999): 0.695 ± 0.015
- osmotic coefficient (313.15 K, m1 = 1.014): 0.677 ± 0.016
- osmotic coefficient (313.15 K, m1 = 1.354): 0.662 ± 0.017
- osmotic coefficient (313.15 K, m1 = 1.597): 0.659 ± 0.017
- osmotic coefficient (313.15 K, m1 = 1.924): 0.652 ± 0.017
- osmotic coefficient (313.15 K, m1 = 2.211): 0.648 ± 0.018
- osmotic coefficient (313.15 K, m1 = 2.579): 0.636 ± 0.018
- osmotic coefficient (313.15 K, m1 = 2.859): 0.635 ± 0.018
- osmotic coefficient (313.15 K, m1 = 3.272): 0.628 ± 0.019
- osmotic coefficient (333.15 K, m1 = 0.0583): 0.742 ± 0.013
- osmotic coefficient (333.15 K, m1 = 0.0975): 0.714 ± 0.014
- osmotic coefficient (333.15 K, m1 = 0.4274): 0.608 ± 0.02
- osmotic coefficient (333.15 K, m1 = 0.6999): 0.584 ± 0.021
- osmotic coefficient (333.15 K, m1 = 1.014): 0.568 ± 0.022
- osmotic coefficient (333.15 K, m1 = 1.354): 0.561 ± 0.022
- osmotic coefficient (333.15 K, m1 = 1.597): 0.558 ± 0.022
- osmotic coefficient (333.15 K, m1 = 1.924): 0.551 ± 0.022
- osmotic coefficient (333.15 K, m1 = 2.211): 0.553 ± 0.022
- osmotic coefficient (333.15 K, m1 = 2.579): 0.544 ± 0.023
- osmotic coefficient (333.15 K, m1 = 2.859): 0.544 ± 0.023
- osmotic coefficient (333.15 K, m1 = 3.272): 0.535 ± 0.023
